Assay results as given in US20140004075A1, “PHEROMONE COMPOSITION” (The New Zealand Institute for Plant and Food Research …, priority 2010, published 2014).

System: Epiphyas postvittana
Assay: Large Vineyard Trial 2 (disruption of catch to four component lures)
Type: in vivo
Details: added at 4:1 ratio E11-14:Ac to Z11-14:Ac (Blends 4, 5)
Description: All compounds used as authentic standards in the chromatographic analysis or in the field trapping experiments were >97% pure by GC analysis and stored at −80° C. until used. Samples of E11-14:Ac, E9E11-14:Ac, E11-14:OH and E11-16:Ac were purchased from Plant Research International, Wageningen, The Netherlands. All blends of synthetic compounds were applied to the large “well” of red rubber septa (West Pharmaceutical Services, Kearney, N.E., USA) in 200 μl of n-hexane GR (Merck Ltd, New Zealand). The solvent was allowed to evaporate in a fume hood and the septa were stored in heat-sealed foil bags at −20° C. until ready for use. For traps used in assessing disruption, lures contained the four component lure at 1 mg loading with the blends shown in Table 1. […]
Traps were maintained weekly as a short central row transect in each case, with 3 traps containing the four component lure. […] For both trials, the number of moths in the traps was recorded each week. […]
For both Large Vineyard Trials 1 and 2, counts for each date were analysed. In addition, the total pre-treatment and post-treatment counts were analysed. […] Random effects assessed were blocks (replicates), plots within blocks, and spatial position (rows and column as in the Trial plans). In addition to the treatments, for the post-treatment counts, a co-variate for the trap counts in the last pre-treatment week was assessed as a fixed effect. […]

CC/C=C\CCCCCCCCCCOC(C)=O [Z11-14:Ac, (Z)-11-tetradecenyl acetate]
effect of the inhibitor on disruption: antagonistic to disruption
